Calls of active or inactive are those of the source.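 How the source made its calls: active means IC50 at or below 20 µM in the dose response; inactive means the rest.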
System: HL-1 cardiomyocytes, H2O2 protection, ATPLite, 2 h
Test: protection of HL-1 cells from peroxide death, SAR follow-up, hydrogen peroxide, ATP luminescence (AID 623872)

Row | SMILES | IC50
1 | COc1ccc(S(=O)(=O)N(Cc2cccnc2)Cc2cc3ccccc3[nH]c2=O)cc1 | > 79 µM (inactive)
2 | COc1ccc(N2C(=O)c3ccccc3N3C(=O)c4c(ccc(OC)c4OC)C23)cc1 (stereo not given) | > 79 µM (inactive)
3 | Cc1ccc(S(=O)(=O)N(Cc2cccnc2)Cc2cc3ccccc3[nH]c2=O)cc1 | > 79 µM (inactive)
4 | COc1ccc(-c2cc(C(=O)Nc3ccccc3)c3ccccc3n2)cc1OC | > 79 µM (inactive)
5 | Cc1ccc(NC(=O)CN(C)C(=O)c2cc(-c3cccs3)nn2-c2ccccc2)cc1 | > 79 µM (inactive)
6 | COc1ccc(NC(=O)CN(C)C(=O)c2cc(-c3cccs3)nn2-c2ccccc2)cc1 | > 79 µM (inactive)
7 | COc1ccc2cc(C(=O)N3CCN(S(=O)(=O)c4ccc(C)cc4C)CC3)c(C)nc2c1 | > 79 µM (inactive)
8 | Cc1ccc(-c2[nH]c3ccccc3c2C(=O)C(=O)N(C)C)cc1 | > 79 µM (inactive)
9 | COc1ccc2c(c1OC)C(=O)N1c3ccccc3C(=O)N(c3cccc(Br)c3)C21 (stereo not given) | 1.89 µM
10 | Cc1ccccc1N(C(=O)c1snc(C(N)=O)c1N)C(C(=O)NCc1ccc(F)cc1)c1ccc(O)cc1 (stereo not given) | > 79 µM (inactive)
11 | COc1cccc(CN(C)C(=O)c2cc(-c3ccccc3)nc3ccc(C)cc23)c1OC | > 79 µM (inactive)
12 | O=c1[nH]c2ccccc2cc1CN(Cc1ccco1)S(=O)(=O)c1ccc(F)cc1 | > 79 µM (inactive)
13 | O=C(C(=O)N1CCCCC1)c1c(-c2ccccc2)[nH]c2ccccc12 | > 79 µM (inactive)
14 | COc1ccccc1N1C(=O)c2ccccc2N2C(=O)c3c(ccc(OC)c3OC)C12 (stereo not given) | 77.1 µM (inactive)
15 | COc1ccc(-c2cc(C(=O)NCc3ccco3)c3ccccc3n2)cc1OC | > 79 µM (inactive)
16 | Cc1ccc(S(=O)(=O)N2CCN(C(=O)c3cc(=O)[nH]c4ccccc34)CC2)cc1C | > 79 µM (inactive)
17 | NC(=O)c1nsc(C(=O)N(Cc2ccccc2)C(C(=O)NCc2ccc(F)cc2)c2ccc(O)cc2)c1N (stereo not given) | > 79 µM (inactive)
18 | COc1cc(-c2cc(C(=O)Nc3cccc(C(C)=O)c3)c3ccccc3n2)cc(OC)c1OC | 2.08 µM
19 | COc1cccc(NC(=O)CN(C)C(=O)c2cc(-c3cccs3)nn2-c2ccccc2)c1 | > 79 µM (inactive)
20 | NC(=O)c1nsc(C(=O)N(c2cccc(F)c2)C(C(=O)NC2CCCC2)c2ccc(O)cc2)c1N (stereo not given) | > 79 µM (inactive)
21 | COCCNC(=O)C(c1ccc(O)cc1)N(C(=O)c1snc(C(N)=O)c1N)c1ccccc1F (stereo not given) | > 79 µM (inactive)
22 | Cc1ccc2cc(CN(C)S(=O)(=O)c3ccc(F)cc3)c(=O)[nH]c2c1 | > 79 µM (inactive)
23 | COc1ccc2c(c1OC)C(=O)N1c3ccccc3C(=O)N(c3ccc(F)cc3)C21 (stereo not given) | 35.6 µM (inactive)

Row | SMILES | IC50
24 | COc1cccc(CN(C)C(=O)c2cc(-c3ccc(OC)c(OC)c3)nc3ccccc23)c1 | > 79 µM (inactive)
25 | COc1ccc(-n2cc(-c3ccccc3)c3c(N4CCCCC4)ncnc32)cc1 | > 79 µM (inactive)
26 | COc1cccc(NC(=O)C(Sc2nc3ccccc3c(=O)n2CC(C)C)c2ccccc2)c1 (stereo not given) | > 79 µM (inactive)
27 | CC(C)CCNC(=O)C(c1ccc(O)cc1)N(C(=O)c1snc(C(N)=O)c1N)c1ccccc1F (stereo not given) | > 79 µM (inactive)
28 | CCCN(CC(=O)Nc1ccccc1OC)C(=O)c1cc(-c2cccs2)nn1-c1ccccc1 | > 79 µM (inactive)
29 | COc1ccc2cc(C(=O)N3CCN(S(=O)(=O)c4cc(C)ccc4C)CC3)c(C)nc2c1 | > 79 µM (inactive)
30 | CCN(CC)S(=O)(=O)c1cc(C(=O)N2CCN(Cc3cccc4cccnc34)CC2)ccc1C | > 79 µM (inactive)
31 | COc1ccc(-c2cc(C(=O)NCc3ccccc3)c3ccccc3n2)cc1OC | > 79 µM (inactive)
32 | CCN(CC(=O)Nc1ccc(OC)cc1)C(=O)c1cc(-c2cccs2)nn1-c1ccccc1 | > 79 µM (inactive)
33 | COc1ccc(-n2cc(-c3ccccc3)c3c(NCc4ccccc4)ncnc32)cc1 | > 79 µM (inactive)
34 | CCCn1c(SC(C(=O)Nc2cccc(OC)c2)c2ccccc2)nc2ccccc2c1=O (stereo not given) | > 79 µM (inactive)
35 | O=C1c2ccccc2N2C(=O)c3ccccc3[C@H]2N1c1ccccc1 | > 79 µM (inactive)
36 | Cc1ccc(C)c(S(=O)(=O)N2CCN(C(=O)c3cc4cc(C)ccc4nc3C)CC2)c1 | > 79 µM (inactive)
37 | COc1ccc(-n2cc(-c3ccccc3)c3c(N4CCCC4)ncnc32)cc1 | > 79 µM (inactive)
38 | COc1ccc2c(=O)c(C(=O)N3CCN(S(=O)(=O)c4c(C)cc(C)cc4C)CC3)c[nH]c2c1 | > 79 µM (inactive)
39 | CCN(CC)C(=O)C(=O)c1c(-c2ccccc2)[nH]c2ccccc12 | > 79 µM (inactive)
40 | Cc1ccc2cc(CN(Cc3cccnc3)S(=O)(=O)c3ccc(F)cc3)c(=O)[nH]c2c1 | > 79 µM (inactive)
41 | COc1ccc2c(c1OC)C(=O)N1c3ccccc3C(=O)N(c3ccccc3C)C21 (stereo not given) | > 79 µM (inactive)
42 | COc1ccc(-c2cc(C(=O)N(C)C)c3ccccc3n2)cc1OC | > 79 µM (inactive)
43 | COc1ccc(-c2cc(C(=O)N(C)Cc3ccc(OC)c(OC)c3OC)c3ccccc3n2)cc1OC | > 79 µM (inactive)
44 | O=C(C(=O)N1CCCC1)c1c(-c2ccccc2)[nH]c2ccccc12 | > 79 µM (inactive)
45 | COCCn1c(SC(C(=O)Nc2cc(C)ccc2C)c2ccccc2)nc2ccccc2c1=O (stereo not given) | > 79 µM (inactive)

From PubChem BioAssay AID623872 (Sanford-Burnham Center for Chemical Genomics, 2012)
